In patent US6737383B1, “Herbicidal oxadiazolidines” (priority 1999, dated 2004):

Columns and labels:
[1] = tested on: surinam grass; assay: Test B pre/postemergence surinam grass; assay type: in vivo, Brachiaria decumbens; settings: for Plant response rating, B. signalgrass: Rate 250 g/ha
Summary of the method: (§1)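 Response is a visual 0-to-10 score relative to untreated plants, where 0 means no effect and 10 means complete control, taken twelve to sixteen days after application. Treatments went onto soil at planting and onto foliage of 1- to 4-leaf plants, using a surfactant-containing non-phytotoxic solvent.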

[2] = tested on: sugar beet; assay: Test B pre/postemergence sugar beet; assay type: in vivo, Beta vulgaris; settings: for Plant response rating, Sugarbeets: Rate 250 g/ha
Summary of the method: as §1

[3] = tested on: rape; assay: Test B pre/postemergence rape; assay type: in vivo, Brassica napus; settings: for Plant response rating, Rape: Rate 250 g/ha
Summary of the method: as §1

[4] = tested on: pigweed; assay: Test B pre/postemergence pigweed; assay type: in vivo, Amaranthus retroflexus; settings: for Plant response rating, Redroot pigweed: Rate 250 g/ha
Summary of the method: as §1

[5] = tested on: bedstraw; assay: Test B pre/postemergence bedstraw; assay type: in vivo, Galium aparine
Summary of the method: as §1

[6] = tested on: wild oat; assay: Test B pre/postemergence wild oat; assay type: in vivo, Avena fatua; settings: for Plant response rating, Wild oats: Rate 250 g/ha
Summary of the method: as §1

[7] = tested on: velvetleaf; assay: Test B pre/postemergence velvetleaf; assay type: in vivo, Abutilon theophrasti; settings: for Plant response rating, Velvetleaf: Rate 250 g/ha
Summary of the method: as §1

[8] = tested on: rice; assay: Test B flood test rice; assay type: in vivo, Oryza sativa
Summary of the method: (§2)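 Flood test on plants grown to the 2-leaf stage; treated plants kept in greenhouse twelve to sixteen days, then visually rated against controls on a 0 (no effect) to 10 (complete control) scale.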

[9] = tested on: smallflower flatsedge; assay: Test B flood test smallflower flatsedge; assay type: in vivo, Cyperus difformis
Summary of the method: as §2

[10] = tested on: blackgrass; assay: Test B pre/postemergence blackgrass; assay type: in vivo, Alopecurus myosuroides; settings: for Plant response rating, Blackgrass: Rate 250 g/ha
Summary of the method: as §1

[11] = tested on: soybean; assay: Test B pre/postemergence soybean; assay type: in vivo, Glycine max; settings: for Plant response rating, Soybean: Rate 250 g/ha
Summary of the method: as §1

[12] = tested on: morningglory; assay: Test B pre/postemergence morningglory; assay type: in vivo, Ipomoea hederacea; settings: for Plant response rating, Morningglory: Rate 250 g/ha
Summary of the method: as §1

[13] = tested on: wheat; assay: Test B pre/postemergence wheat; assay type: in vivo, Triticum aestivum; settings: for Plant response rating, Wheat: Rate 250 g/ha
Summary of the method: as §1

[14] = tested on: cocklebur; assay: Test B pre/postemergence cocklebur; assay type: in vivo, Xanthium strumarium; settings: for Plant response rating, Cocklebur: Rate 250 g/ha
Summary of the method: as §1

[15] = tested on: corn; assay: Test B pre/postemergence corn; assay type: in vivo, Zea mays; settings: for Plant response rating, Corn: Rate 250 g/ha
Summary of the method: as §1

[16] = tested on: giant foxtail; assay: Test B pre/postemergence giant foxtail; assay type: in vivo, Setaria faberii; settings: for Plant response rating, Giant foxtail: Rate 250 g/ha
Summary of the method: as §1

[17] = Postemergence, Rate 125 g/ha, scale of 0 to 10 where 0 is no effect and 10 is complete control
[18] = Preemergence, Rate 62 g/ha, scale 0 to 10 (0 no effect, 10 complete control)
[19] = Preemergence, Rate 125 g/ha, 0 is no effect, 10 is complete control
[20] = Preemergence, scale of 0 to 10 where 0 is no effect and 10 is complete control
[21] = Preemergence, Rate 500 g/ha, scale 0 to 10 (0 no effect, 10 complete control)
[22] = Postemergence, scale 0 to 10, 0 is no effect, 10 is complete control
[23] = Rate 62 g/ha, Postemergence, scale of 0 to 10 where 0 is no effect and 10 is complete control
[24] = Rate 500 g/ha, Postemergence, scale 0 to 10, 0 no effect, 10 complete control
[25] = Postemergence (flood test species), Rate 125 g/ha, scale of 0 to 10 where 0 is no effect and 10 is complete control
[26] = Rate 62 g/ha, Postemergence section, flood test species, scale of 0 to 10 where 0 is no effect and 10 is complete control
[27] = Rate 250 g/ha, Postemergence (flood test), scale 0 to 10, 0 is no effect, 10 is complete control
[28] = Rate 250 g/ha, headed Pre-emergence (flood test species), scale 0 to 10 (0 no effect, 10 complete control)
[29] = Rate 500 g/ha, headed Pre-emergence (flood test species), scale 0 to 10 (0 no effect, 10 complete control)
[30] = Rate 500 g/ha, listed under Postemergence (flood test species), scale 0 to 10, 0 no effect, 10 complete control
[31] = Rate 2000 g/ha, Pre-emergence (as headed), scale 0 to 10

CC(C)N(C(=O)n1oc(=O)n(-c2cnn(C)c2Cl)c1=O)c1ccccc1 [Compound 122]
B. signalgrass plant response rating ([1]; Postemergence, Rate 62 g/ha, scale 0 to 10, 0 is no effect, 10 is complete control): 0 | B. signalgrass plant response rating [1, 17]: 0 | B. signalgrass plant response rating [1, 18]: 0 | B. signalgrass plant response rating (0 to 10 scale) [1, 19]: 0 | Plant response rating, B. signalgrass [1, 20]: 0 | B. signalgrass plant response rating [1, 21]: 5 | Plant response rating, B. signalgrass [1, 22]: 0 | B. signalgrass plant response rating ([1]; Rate 500 g/ha, Postemergence, scale of 0 to 10 where 0 is no effect and 10 is complete control): 0 | Sugarbeets plant response rating [2, 17]: 0 | Sugarbeets plant response rating [2, 18]: 0 | Sugarbeets plant response rating (0 to 10 scale) [2, 19]: 0 | Plant response rating, Sugarbeets [2, 20]: 0 | Sugarbeets plant response rating [2, 21]: 4 | Sugarbeets plant response rating [2, 23]: 0 | Plant response rating, Sugarbeets [2, 22]: 0 | Sugarbeets plant response rating [2, 24]: 2 | Rape plant response rating [3, 17]: 0 | Rape plant response rating [3, 18]: 0 | Rape plant response rating (0 to 10 scale) [3, 19]: 0 | Plant response rating, Rape [3, 20]: 0 | Rape plant response rating [3, 21]: 3 | Rape plant response rating [3, 23]: 0 | Plant response rating, Rape [3, 22]: 3 | Rape plant response rating [3, 24]: 4 | Redroot pigweed plant response rating [4, 17]: 1 | Redroot pigweed plant response rating [4, 18]: 0 | Redroot pigweed plant response rating (0 to 10 scale) [4, 19]: 5 | Plant response rating, Redroot pigweed [4, 20]: 8 | Redroot pigweed plant response rating [4, 21]: 8 | Redroot pigweed plant response rating [4, 23]: 0 | Plant response rating, Redroot pigweed [4, 22]: 2 | Redroot pigweed plant response rating [4, 24]: 5 | Bedstraw plant response rating [5, 18]: 0 | Bedstraw plant response rating (0 to 10 scale) [5, 19]: 0 | Plant response rating, Bedstraw ([5]; Preemergence, Rate 250 g/ha, scale of 0 to 10 where 0 is no effect and 10 is complete control): 0 | Bedstraw plant response rating [5, 21]: 0 | Bedstraw plant response rating [5, 24]: 3 | Wild oats plant response rating [6, 17]: 0 | Wild oats plant response rating [6, 18]: 0 | Wild oats plant response rating (0 to 10 scale) [6, 19]: 0 | Plant response rating, Wild oats [6, 20]: 3 | Wild oats plant response rating [6, 21]: 5 | Wild oats plant response rating [6, 23]: 0 | Plant response rating, Wild oats [6, 22]: 0 | Wild oats plant response rating [6, 24]: 0 | Velvetleaf plant response rating [7, 17]: 0 | Velvetleaf plant response rating [7, 18]: 0 | Velvetleaf plant response rating (0 to 10 scale) [7, 19]: 0 | Plant response rating, Velvetleaf [7, 20]: 0 | Velvetleaf plant response rating [7, 21]: 3 | Velvetleaf plant response rating [7, 23]: 0 | Plant response rating, Velvetleaf [7, 22]: 3 | Velvetleaf plant response rating [7, 24]: 3 | Rice plant response rating [8, 25]: 0 | Rice plant response rating [8, 26]: 0 | Plant response rating, Rice [8, 27]: 0 | Rice plant response rating [8, 28]: 0 | Plant response rating, Rice [8, 29]: 0 | Rice plant response rating [8, 30]: 0 | Rice plant response rating ([8]; Rate 1000 g/ha, Pre-emergence (as headed), scale 0 to 10): 0 | Rice plant response rating [8, 31]: 0 | S. Flatsedge plant response rating [9, 25]: 0 | S. Flatsedge plant response rating ([9]; Pre-emergence, Rate 1000 g/ha, scale 0 to 10 (0 no effect, 10 complete control)): 0 | S. Flatsedge plant response rating [9, 26]: 0 | Plant response rating, S. Flatsedge [9, 27]: 0 | S. Flatsedge plant response rating [9, 28]: 0 | Plant response rating, S. Flatsedge [9, 29]: 0 | S. Flatsedge plant response rating [9, 30]: 0 | S. Flatsedge plant response rating [9, 31]: 0 | Blackgrass plant response rating [10, 17]: 0 | Blackgrass plant response rating [10, 18]: 0 | Blackgrass plant response rating (0 to 10 scale) [10, 19]: 0 | Plant response rating, Blackgrass [10, 20]: 0 | Blackgrass plant response rating [10, 21]: 3 | Blackgrass plant response rating [10, 23]: 0 | Plant response rating, Blackgrass [10, 22]: 4 | Blackgrass plant response rating [10, 24]: 6 | Soybean plant response rating [11, 17]: 3 | Soybean plant response rating [11, 18]: 0 | Soybean plant response rating (0 to 10 scale) [11, 19]: 0 | Plant response rating, Soybean [11, 20]: 0 | Soybean plant response rating [11, 21]: 0 | Soybean plant response rating [11, 23]: 3 | Plant response rating, Soybean [11, 22]: 3 | Soybean plant response rating [11, 24]: 5 | Morningglory plant response rating [12, 17]: 3 | Morningglory plant response rating [12, 18]: 0 | Morningglory plant response rating (0 to 10 scale) [12, 19]: 0 | Plant response rating, Morningglory [12, 20]: 0 | Morningglory plant response rating [12, 21]: 0 | Morningglory plant response rating [12, 23]: 1 | Plant response rating, Morningglory [12, 22]: 4 | Morningglory plant response rating [12, 24]: 4 | Wheat plant response rating [13, 17]: 0 | Wheat plant response rating [13, 18]: 0 | Wheat plant response rating (0 to 10 scale) [13, 19]: 0 | Plant response rating, Wheat [13, 20]: 0 | Wheat plant response rating [13, 21]: 0 | Wheat plant response rating [13, 23]: 0 | Plant response rating, Wheat [13, 22]: 0 | Wheat plant response rating [13, 24]: 0 | Cocklebur plant response rating [14, 17]: 2 | Cocklebur plant response rating [14, 18]: 0 | Plant response rating, Cocklebur [14, 20]: 0 | Cocklebur plant response rating [14, 23]: 0 | Plant response rating, Cocklebur [14, 22]: 3 | Cocklebur plant response rating [14, 24]: 3 | Corn plant response rating [15, 17]: 0 | Corn plant response rating [15, 18]: 0 | Corn plant response rating (0 to 10 scale) [15, 19]: 0 | Plant response rating, Corn [15, 20]: 0 | Corn plant response rating [15, 21]: 0 | Corn plant response rating [15, 23]: 0 | Plant response rating, Corn [15, 22]: 0 | Corn plant response rating [15, 24]: 0 | Giant foxtail plant response rating [16, 17]: 2 | Giant foxtail plant response rating [16, 18]: 7 | Giant foxtail plant response rating (0 to 10 scale) [16, 19]: 9 | Plant response rating, Giant foxtail [16, 20]: 9 | Giant foxtail plant response rating [16, 21]: 9 | Giant foxtail plant response rating [16, 23]: 2 | Plant response rating, Giant foxtail [16, 22]: 6 | Giant foxtail plant response rating [16, 24]: 9
